Source: patent US5262403A, “Glycosaminoglycan derivatives and their use as inhibitors of tumor invasiveness of metastatic profusion-II” (priority 1990, dated 1993)
Entries after “also recorded” stand apart in the source; their conditions may differ.

What was measured:
[1] = test system: B16 melanoma heparanase; assay: HPLC assay for heparanase inhibition (14C-HS degradation, gel-permeation chromatography); assay type: biochemical, mouse; details: 1 mg/ml in incubation mixture, crude heparanase of 10^6 B16-BL6 cells, 37° C., 6 h
Description: A high-speed gel-permeation chromatography system was equipped with a 0.70×75 cm column of Fractogel TSK-HW55(S). Elution was performed with 0.2M NaCl at a flow rate of 1.0 ml/min at 55° C. Each 0.5-ml fraction corresponding to 30-sec elution was collected, mixed with 3 ml of Hydrofluor and its radioactivity determined. Panel A, ^14 C-HS was incubated with heat-inactivated crude heparanase (10^6 B16-BL6-melanoma cell equivalents) at 37° C. for 6 h, and analyzed. B, same incubation as A except that the enzyme was not heat-inactivated.
High-speed gel permeation chromatography was performed as described previously (Irimura et al., (1983a) Anal. Biochem., V 130, pp 461-468) using a Constametric III (LDC-Milton Roy, Riviera Beach, Fla.) with a single 0.7×75 cm stainless steel column packed with Fractogel TSK HW-55(S). Elution was accomplished with 0.2M sodium chloride at flow rates of 1.0 ml/min or 0.75 ml/min. Absorption at 210 nm was monitored for the analogs of chemically modified heparin. For the qualitative examination of radiolabeled HS-degradation products, each fraction corresponding to 30-sec elution was collected into plastic scintillation vials, and radioactivity in each vial was determined after the fraction was mixed with 3.0 ml of Hydrofluor (National Diagnostics, Somerville, N.J.).
Cell extracts were prepared in 5 mM Tris-HCl buffer, pH 7.4, containing 0.25M sucrose, 50 μM calcium chloride, 10 μM phenylmethylsulfonylfluoride, and 0.2% Nonidet P-40 (Irimura et al., (1983). The melanoma extracts were stored frozen at -80° C. and used as crude heparanase.
High-Performance Liquid Chromatography [HPLC] Assay for Heparanase. Fifty microliters of melanoma extract (equivalent to 10^6 cells) were mixed with chemically modified heparin (5 mg/ml in water), 50 μl of 4×heparanase assay buffer (0.4 sodium phosphate buffer, pH 5.8, containing 0.4% Triton X-100, 0.6M sodium chloride, and 0.4% sodium azide) and about 3000 cpm of ^14 C-HS.

[2] = test system: B16 melanoma heparanase; assay: Solid-phase assay for heparanase inhibitors (3H-HS-agarose beads); assay type: biochemical, mouse; details: B16-BL6 lysate of 10^6 cells, various concentrations, 37° C.
Description: The measurements were performed by incubating B16-BL6 melanoma heparanase. The measurements were performed by incubating B16-BL6 melanoma cell lysates equivalent to 10^6 cells with a suspension of ^3 H-HS-agarose beads prepared by partial N-desulfation and ^3 H-acetylation (approximately 20% suspension), and various concentrations of heparanase inhibitors at 37° C. for 24 hr with gentle mixing.
Source of Heparanase. Highly invasive mouse B16 melanoma (B16-BL6) cells were provided by Dr. I. J. Fidler, (M.D. Anderson Hospital, Houston, Tex.) and were cultured as previously described (Irimura et al., (1983a) and Irimura et al. (1984)). Cell extracts were prepared in 5 mM Tris-HCl buffer, pH 7.4, containing 0.25M sucrose, 50 μM calcium chloride, 10 μM phenylmethylsulfonylfluoride, and 0.2% Nonidet P-40 (Irimura et al., (1983). The melanoma extracts were stored frozen at -80° C. and used as crude heparanase.
Preparation of Solid-phase Substrates for Heparanase and Inhibitor Assays.
Solid-phase Assays for Heparanase and Heparanase Inhibitors. ^3 H-HS-agarose was suspended in Dulbecco's phosphate buffered saline (DPBS) at about 20% (v/v). The incubation conditions for the solid-phase assay were identical to those of the HPLC assay, except that 75 μl of the ^3 H-HS-agarose suspension was used instead of the HS so that the incubation mixture consisted of B16 melanoma extract, chemically modified heparins, 4×heparanase assay buffer, and ^3 H-HS-agarose suspension. After incubation, the reaction mixture was placed on ice, chilled 5% trichloroacetic acid (50 ul) added, the mixture incubated for 10 min, and centrifuged. Radioactivity in the supernatant and the pellet was determined separately after mixing with Hydrofluor.

[3] = test system: B16-BL6 melanoma cells; assay: Experimental blood-borne lung colonization, melanoma cells preincubated with heparins; assay type: in vivo, C57BL/6 mice; details: for Number of colonies (median), Exp 1 / Number of colonies (median), Exp 2 / Number of colonies, Exp 1 (individual mice): cells incubated with 500 ug/ml at 4° C. for 2 hr before i.v. injection, lung, 20 days; for Number of colonies, Exp 1 (individual mice): 9 mice/group
Description: Experimental Metastatic Lung Colonization of Melanoma Cells. Male C57BL/6 mice 4 to 6 weeks old were obtained from Charles River, Inc. (Kingston, Md.) and quarantined for 2 weeks. Animals were fed normal rodent chow and unchlorinated spring water. B16-BL6 cells were grown to subconfluence, detached from plastic dishes by incubating in 2 mM EDTA, 0.14M NaCl and 10 mM sodium phosphatebuffer, pH 7.4, for 5-10 min, and suspended in a 1:1 mixture of Dulbecco's modified minimum essential medium and Ham's F12 medium. […] Treated or untreated cells (5×10^4 /0.1 ml) were injected intravenously to each mouse. Mice were killed 20 days later and autopsied. The numbers of pulmonary tumor nodules were counted after the lung was perfused via the trachea with 4% formalin in Dulbecco's phosphate buffered saline. Extrapulmonary tumor formation was assessed in each animal and recorded.

[4] = test system: B16-BL6 melanoma; assay: Release of 35S-labeled substances from lung capillary endothelial extracellular matrix by melanoma cells; assay type: cell-based, mouse; details: for degradation of sulfated molecules of endothelial matrix by melanoma cells: 35S-labeled matrix, B16-BL6 cells, 37° C., 18 hours
Description: FIG. 6: Effects of chemically modified heparins on the release of ^35 S labeled substances from the extracellular matrix of mouse lung capillary endothelial cells in vitro. […] (See: Nakajima et al., Science 220:611-613, 1983, for the methods.)
Effects of chemically modified heparins on the release of ^35 S-labeled polysaccharides from the extra-cellular matrix of mouse lung endothelial cells were studied in vitro. The endothelial cells isolated from mouse lung capillary were grown in the presence of ^35 S-sulfate, and the extracellular matrix-like material was isolated on multiwell plastic tissue culture plates by hypotonic lysis of the cells. The matrices (1 cm diameter) were incubated with mouse B16-BL6 melanoma at 37° C. for 18 hours. The released radioactivity was counted.

[5] = test system: B16-BL6 melanoma cells; assay: 3H-thymidine incorporation, growth of melanoma cells in tissue culture; assay type: cell-based, mouse; details: with or without 5% fetal bovine serum; 48 h exposure
Description: FIG. 7: Effects of chemically modified heparins on the incorporation of ^3 H-thymidine to B16-BL6 melanoma cells grown in tissue culture.
In order to assess a possibility that the effects of modified heparins on the blood-borne lung colonization of B16 melanoma cells were due to their direct toxic effects on the cells, the growth of B16 melanoma in the presence or absence of modified heparins were examined in vitro. B16-BL6 melanoma cells were seeded in multiwell tissue culture plates at a density 10,000 per each 1 cm well in the presence or absence of 5% fetal bovine serum. Six hours later, modified heparins were added, then 24 hours later, ^3 H thymidine was added to a final concentration 5 uCi/ml. After further 24 hour incubation, trichloroacetic acid-insoluble materials were collected, dissolved in 1M sodium hydroxide solution, neutralized and counted on a liquid scintillation counter.

[6] = test system: B16-BL6 cells; assay: Adhesion of melanoma cells to endothelial cell monolayers; assay type: cell-based, mouse; details: B16 cells pretreated 2 hrs, continuous presence of compounds, 37° C.
Description: FIG. 8: Adhesion of B16 melanoma cells to bovine aortic endothelial cell monolayers. FIG. 8(a) B16 melanoma cells were pretreated with modified heparins at room temperature for 2 hrs, and the adhesion assays were performed in the continuous presence of these compounds at 37° C. FIG. 8(b) Endothelial cells were pretreated with modified heparins at 37° C. for 2 hrs, then adhesion assays were performed. (See Nicolson and Custead, (1985) Cancer Res. 45:331-336, for the methods
One of the most critical steps in the tumor cell-microvascular endothelium interaction during metastatic lung colonization of melanoma cells is the adhesive interaction of melanoma cells with endothelial cells. The effects of modified heparins on the adhesion of B16 melanoma to the cell monolayer and to the extracellular matrix of lung capillary endothelial cells were studied in vitro. The endothelial cells were grown in tissue culture and the extracellular matrices were isolated as described in Example 8.

[7] = test system: B16-F10 melanoma cells; assay: Invasion of organ-cultured lung tissues by melanoma cells; assay type: cell-based; details: organ-cultured minced mouse lung
Excerpt: FIG. 10: Effects of modified heparins on the B16-F10 melanoma cell-invasionof isolated mouse lung tissues in vitro. The experimental conditions were the same as the adhesion experiments. The invaded cells were counted on 4 μm sections under a light microscope. (See Nicolson et al., (1985) Invasion Metastasis, 5:144-158, for detailed methods.)
The effects of these glycosaminoglycan derivates on organ-specific adhesion and invasion of B16 melanoma cells were studied by using primary organ culture techniques in vitro. Minced lung tissues (0.5-1.0 cubic mm) from C57BL/6 mice were placed in glass vials and incubated in HEPES-buffered Dulbecco's modified minimum essential media containing 10% fetal bovine serum and 50 ug/ml gentamycin under continuous gyration at 66 rpm. After the medium was changed to a fresh medium without gentamycin, B16-F10 melanoma cells were added at a final concentration of 100,000/ml with or without various modified heparins. After various incubation times, the tissues were fixed in buffered formalin and processed for light microscopy. The adhesion and invasion of the tumor cells were examined on […] sections stained with hematoxylin and eosin.

[8] = test system: B16 melanoma cells; assay: Blood-borne lung colonization, mice treated i.v. with heparins; assay type: in vivo, C57BL/6 mice; details: for Number of lung colonies, Median: 0.1 ml of 5.0 mg/ml i.v. 4 hr before and 20 hr after inoculation of 5×10^4 cells, 20 days; for establishment of metastatic tumor colonies in the lungs, in words: i.v. treatment of mice
Description: Chemically modified heparins were tested in mice as inhibitors of blood-borne lung colonization by melanoma cells. Male C57BL/6 mice 4 to 6 weeks old were obtained from Charles River, Inc. and quarantined for 2 weeks. The mice were intravenously inoculated with 5×10^4 B16-BL melanoma cells. Treated mice were intravenously injected with 0.1 ml each of heparin or chemically modified heparin (5.0 mg/ml) 4 hr before and 20 hr after inoculation with the melanoma cells. The chemically modified heparins used were: N-acetylated N-desulfated heparin; carboxyl-reduced heparin; and N-resulfated N, O-desulfated heparin.
Mice were killed 20 days after tumor inoculation and autopsied. The numbers of pulmonary tumor colonies were counted after the lungs were perfused via the trachea with 4% formalin in Dulbecco's phosphate-buffered saline.

[9] = test system: rat mammary adenocarcinoma MTF7; assay: Experimental metastasis of rat mammary adenocarcinoma, rats treated i.v.; assay type: in vivo, Fischer (F344/CDL) rats; details: for Lung Metastases per rat, Median No.: 0.1 ml of 10 mg/ml i.v. 8 h before and 16 h after 5×10^4 MTF7 cells, 30 days; for effectiveness against lung tumor colonies of mammary carcinoma, in words: i.v. treatment of rats
Description: Inbred 8-week-old female Fischer (F344/CDL) rats were supplied by the Charles River Breeding Laboratories (Kingston, N.Y.). Animals were quarantined for 7 days before use and feed standard rodent chow and unchlorinated spring water ad libitum. They were maintained under guidelines set forth by the University of Texas M. D. Anderson Cancer Center and the Institute of Laboratory Animal Resources, National Research Council. […] The cells grown at 37° C. in an atmosphere of 5% CO2 in humidified air in an 1:1 mixture of Dulbecco's modified minimum essential media and Ham's F12 media containing 10% fetal bovine serum and no antibiotics in 100 mm-diam. tissue culture plates.
The cells used in this study were in exponential growth phase and were from passages 14 to 20 in vitro and were free of mycoplasma and viral contamination.
Rats (9 per group) were injected i.v. (lateral tail vein) with 0.1 ml of 10 mg/ml solution of heparin, N-acetylated-N-desulfated heparin, or carboxyl-reduced heparin. Eight hours later, the same rats were injected i.v. with 5×10^4 MTF7 mammary carcinoma cells suspended in 0.2 ml serum-free media. Sixteen hours after injections of carcinoma cells, rats were treated with unmodified or chemically modified heparin at the same dose as the previous treatment 8 hours prior to the injection of carcinoma cells.
Rats were killed 30 days after the initial injection of carcinoma cells and examined for the number of lung tumor colonies, that should represent the degree of metastatic spread of mammary carcinoma cells.

[10] = test system: melanoma heparanase; details: cited from earlier work
[11] = test system: blood coagulation; assay: Anticoagulation activity by USP standard assay; details: % of the anticoagulation activity of unmodified heparin
[12] = test system: vascular smooth muscle cells; details: cited from earlier work

| inhibition of degradation of HS by heparanase (HPLC assay) [1] | heparanase inhibitory activity (solid-phase assay, release of 3H-HS fragments) [2] | incorporation of 3H-thymidine to B16 cells [5] | Substance | Number of colonies (median), Exp 1 [3] | Number of colonies (median), Exp 2 [3] | Number of colonies, Exp 1 (individual mice) [3] | degradation of sulfated molecules of endothelial matrix by melanoma cells [4] | Number of lung colonies, Median [8] | Lung Metastases per rat, Median No. [9] | effectiveness against lung tumor colonies of mammary carcinoma, in words [9] | anticoagulation activity relative to unmodified heparin [11] | anti-proliferative (growth inhibitory) activity [12] | also measured |
| --- | --- | --- | --- | --- | --- | --- | --- | --- | --- | --- | --- | --- | --- |
| no degradation was observed | consistent with those of the HPLC assay | no significant effects | Heparin [reference compound] | 16 | 0 | 174 | inhibited the degradation | 30 | 9 | most effective | – | – | number of visible melanoma colonies in lung, in words ([3]; 20 days after injection of preincubated cells): greater; spontaneous (non-enzymatic) release of 35S labeled macromolecules ([4]; in the absence of B16 melanoma cells): apparently induced spontaneous release; also recorded: induced non-enzymatic release; time course of adhesion to endothelial cell monolayer, melanoma cells pretreated [6]: None of these compounds, including intact heparin, significantly altered; invasion of B16 melanoma cells to lung tissues [7]: inhibited invasion; establishment of metastatic tumor colonies in the lungs, in words [8]: inhibited formation of lung metastases; inhibition of HS degradation by B16 cell extracts [10]: inhibited HS degradation |
| – | weaker inhibitory activity than heparin | no significant effects | carboxy-reduced heparin | 29 | 51 | 53 | effectively blocked the degradation | 6 | 25 | also effective | less than 1% | – | establishment of metastatic tumor colonies in the lungs, in words [8]: most effective |
| failed to inhibit degradation | failed to how any inhibitory activity | – | N- and O-desulfated heparin | – | – | – | – | – | – | – | – | – | – |
| partially restored | partial restoration of activity | – | N-resulfated N- and O-desulfated heparin | – | 8 | – | effectively blocked the degradation | 36 | – | – | less than 1% | – | – |
| failed to inhibit degradation | failed to how any inhibitory activity | – | completely N-desulfated heparin | – | – | – | – | – | – | – | – | lost their anti-proliferative activity | – |

The next lines start with the substance.

| Substance | inhibition of degradation of HS by heparanase (HPLC assay) [1] | heparanase inhibitory activity (solid-phase assay, release of 3H-HS fragments) [2] | incorporation of 3H-thymidine to B16 cells [5] | Number of colonies (median), Exp 1 [3] | Number of colonies (median), Exp 2 [3] | Number of colonies, Exp 1 (individual mice) [3] | degradation of sulfated molecules of endothelial matrix by melanoma cells [4] | Number of lung colonies, Median [8] | Lung Metastases per rat, Median No. [9] | effectiveness against lung tumor colonies of mammary carcinoma, in words [9] | anticoagulation activity relative to unmodified heparin [11] | anti-proliferative (growth inhibitory) activity [12] | also measured |
| --- | --- | --- | --- | --- | --- | --- | --- | --- | --- | --- | --- | --- | --- |
| N-acetylated N-desulfated heparin | – | partially restored | no significant effects | 43 | 5 | 199 | – | 60 | 29 | also effective | less than 1% | retained full growth inhibitory properties | – |
| N-acetylated N- and O-desulfated heparin | – | did not, however, restore the inhibitory activity | – | – | – | – | – | – | – | – | – | – | – |
| N-desulfated N-resulfated heparin [reference compound] | – | – | – | – | – | – | – | – | – | – | – | retained full growth inhibitory properties | – |
